Experimental data: article PMC12111156, “Nitazoxanide Analogs: Synthesis, In Vitro Giardicidal Activity, and Effects on Giardia lamblia Metabolic Gene Expression” (International Journal of Molecular Sciences, 2025)
Read-outs that look alike come from different tables or passages of the source.

What was measured:
[1] = system: G. lamblia strain ATCC 30957; test: Viability of Giardia lamblia trophozoite culture (trypan blue count); format: cell-based; conditions: for Inhibition of growth of G. lamblia parasite culture: concentration not given; for IC50: trophozoites ATCC 30957, 48 h, 37 °C, read-out: IC50 G. lamblia
Experimental: Viability analysis was performed on G. lamblia strain ATCC 30957 grown in TYI-S-33 medium supplemented with 10% fetal bovine serum (FBS) and an antibiotic. Pre-culture was performed in 16 × 150 mm borosilicate tubes with a medium inoculated with 2 × 10^5 trophozoites and incubated at 37 °C for 48 h. For the recovery of the trophozoites, the vial was incubated in ice for 8 min and centrifuged for 6 min at 2000 rpm. The concentrated trophozoites were suspended in 1 mL of phosphate-buffered saline (PBS), and the number of trophozoites was counted by placing a 1:1 volume ratio of cell culture and trypan blue dye (4 g/L); then, a homogeneous drop of the mixture was taken and placed in the Neubauer chamber, and the total cells were counted.
The curves were plotted for concentrations of 0–50 µM of each compound. The assay was performed by placing 1.5 × 10^5 cells in 1.5 mL microcentrifuge tubes with a supplemented medium and different concentrations of each compound (0–50 µM). The negative control was performed under the same conditions without a compound, and the drugs NTZ and MTZ were used as positive controls. The samples were incubated for 48 h at 37 °C. At the end of the incubation, the cell viability count was performed using the trypan blue technique. The viability calculation was performed following the formula nv/(nv + nm), where nv represents the live cells and nm represents the dead cells; the viability value obtained was expressed as a percentage. The IC50 value of each compound was determined using the IC50 Calculator software (https://www.aatbio.com/tools/ic50-calculator).

[2] = system: Giardia lamblia trophozoites (strain ATCC 30957) gene expression; test: Gene expression in trophozoites by RT-qPCR; format: cell-based; conditions: IC50 of each compound, 48 h
Experimental: To determine the alterations in the parasite’s metabolism and cellular processes induced by the compounds, the expression levels of various genes encoding metabolic, structural, and oxidative stress response proteins were evaluated. G. lamblia strain ATCC 30957 was grown by following previously established culture parameters.
The culture tube was incubated on ice for 15 min and then centrifuged at 2000 rpm for 6 min to concentrate the cell pellet. Cell counting was performed using the trypan blue method. A 500 µL volume of Trizol ® was added, and it was gently homogenized; then, 60 µL of chloroform was added, and it was homogenized for 10 s with a vortex and incubated on ice for 3 min. Afterward, it was centrifuged at 12,000 rpm for 10 min, the aqueous phase was transferred to a new tube, 200 µL of isopropanol was added, and it was incubated for 3 h on ice. The sample was then centrifuged for 10 min at 12,000 rpm, and the supernatant was discarded. A 600 µL volume of ethanol (70%) was added, homogenized, and centrifuged. In the end, the supernatant was removed, and the sample was centrifuged again to dry the excess alcohol. The pellet was dried. Finally, it was resuspended in 25 µL of sterile MilliQ water. The concentration and purity of the extracted RNA were determined using the NanoDrop® Spectrophotometer ND-1000 (NanoDrop Technologies, Wilmington, DE, USA). […] RNA purity and integrity were confirmed using 0.8% (w/v) agarose gels under denaturing conditions.
The synthesis of cDNA was carried out with […] of purified RNA, and 1 U of […] was added (Thermo Thermo Fisher Scientific, Waltham, MA, USA). First-strand cDNA synthesis was carried out using 1 μg of DNase-treated RNA, combined with a 10 mM dNTP mix, oligo(dT)18 primer, and RevertAid reverse transcriptase (Thermo Scientific) in a final reaction volume of 20 μL. The reaction mixture was incubated at 42 °C for 60 min, followed by heat inactivation at 70 °C for 10 min. The synthesized cDNA was stored at −20 °C until further use. The level of purity and concentration of the cDNA were determined using the NanoDrop® Spectrophotometer ND-1000 (NanoDrop Technologies, Wilmington, DE, USA).
Specific oligonucleotides were designed to determine the expression levels of the gene’s phosphofructokinase, pyruvate kinase, glucose-6-phosphate dehydrogenase::6-phosphogluconolactonase, 6-phosphogluconate dehydrogenase, and transketolase. The design was based on gene sequences available in the National Center for Biotechnology Information (NCBI) database, adhering to the following criteria: an oligonucleotide length of 18–20 bp, a melting temperature (Tm) of 61 °C, a GC content of approximately 40%, and an amplicon size between 80 and 200 bp (Table 4). The oligonucleotides were synthesized by the Sequencing and Synthesis Unit of the Institute of Biotechnology, UNAM.
Additionally, previously reported primers that were used for the gene expression analysis of G. lamblia were also obtained (Table 4). These primers target genes encoding surface structural protein, giardin, actin, pyruvate:ferredoxin oxidoreductase, pyruvate phosphate dikinase, NADH oxidase, triose phosphate isomerase, glyceraldehyde-3-phosphate dehydrogenase, and Aldolase.
Amplification was performed using a StepOne™ Real-Time PCR System and the Fast SYBR® Green Master Mix kit (Applied Biosystems, Foster City, CA, USA) under the following conditions: an initial denaturation at 95 °C for 30 s, followed by 40 cycles of 95 °C for 3 s and 60 °C for 30 s. The melt curve analysis was conducted post-amplification by gradually increasing the temperature from 60 °C to 95 °C. […] Normalization was performed using the geometric mean of cycle threshold (Ct) values, and the relative expression levels of the target genes were calculated using the 2^−ΔΔCt method. Each reaction was performed in five replicates for all analyzed genes and strains. Results are presented as mean values ± standard deviation (SD).

Caco-2 and HT-29 cells = test: Cytotoxicity, XTT viability assay, stated for both cell lines; format: cell-based, human; conditions: 125 µM, 48 h
Experimental: The suspension was added to a 96-well plate. […] Cell viability was determined using the following steps.

[3] = Cytotoxicity, XTT viability assay, Caco-2; conditions: human
Experimental: (§1) The cytotoxicity assay was performed to evaluate the effect of the selected compounds on human cells. Colon cells were used because they are cell lines like those present in the microenvironment where G. lamblia colonizes, which is the small intestine of the host. The assay was performed using the human cell lines Caco-2 (ATCC HTB-37) and HT-29 (ATCC […]). Cell viability was determined using the Cell Proliferation Kit II (XTT, St. Louis, MO, EE. UU.). A cell suspension of 2 × 10^3 cells/mL was prepared in Dulbecco’s modified Eagle’s medium (DMEM) supplemented with 10% inactivated fetal bovine serum and an antibiotic (1% penicillin/streptomycin, 5000 U/mL, in a volume of 100 µL). The suspension was added to a 96-well plate. The plates were incubated for 24 h at 37 °C in a 5% CO2 atmosphere. […] The cells were incubated for 48 h at 37 °C in a 5% CO2 atmosphere. Cell viability was determined using the following steps. The medium in each well was replaced with 100 µL of fresh medium, and 50 µL of XTT labeling mix was added per well. The reaction was incubated for four hours at 37 °C and 5% CO2. After incubation, the absorbance of the samples on the plate was measured at 450 nm. Each compound was assayed in triplicate in three independent experiments. CC50 values (μM) were determined using the nonlinear regression function of GraphPad Prism version 8 for Windows.

[4] = Cytotoxicity, XTT viability assay, HT-29; conditions: human, CC50 HT-29, 48 h, XTT
Experimental: as §1

HT-29 cells [5] = test: Cytotoxicity, XTT viability assay, HT-29; conditions: for Selectivity index (CC50/IC50) HT-29: CC50 HT-29 / IC50 trophozoite ATCC strain 30957
Experimental: as §1

[6] = system: G6PD::6PGL enzyme of G. lamblia; conditions: cited from earlier work
[7] = system: G. lamblia strain resistant to nitazoxanide; test: Giardicidal activity in nitazoxanide-resistant strain (trypan blue count); format: cell-based; conditions: Giardia duodenalis, 48 h, read-out: IC50 G. lamblia (NTZ Resistant)
Experimental: A pre-culture at confluence was used as a starting point, and a concentration–response curve was plotted using an initial compound concentration of 25 μM in a final volume of 1.5 mL of TYI-S-33 medium, followed by serial dilutions of the compound. Each treatment was inoculated with 1.5 × 10^5 trophozoites and incubated for 48 h at 37 °C. At the end of the incubation, the number of trophozoites was determined using the trypan blue assay and by counting in a Neubauer chamber. The viability percentage at each compound concentration was calculated using the negative control as a reference.

Caco-2 cells = system: Caco-2 cells; design: method as in PMID 38893461; conditions: cited from earlier work
HT-29 cells [8] = system: HT-29 cells; design: method as in PMID 38893461; conditions: cited from earlier work
[9] = Giardia duodenalis, ATCC30957, 48 h
[10] = ratio of IC50 values, ATCC strain

SMILES	Inhibition of growth of G. lamblia parasite culture [1]	G6PD::6PGL gene expression vs control [2] [fold change]	GIA (giardin) gene expression, increase vs control [2]	NADHox gene expression, increase vs control [2] [times]	PFK gene expression vs control [2]	PPDK gene expression vs control [2] [fold change]	Decrease of cell viability (Caco-2 and HT-29 cells)	CC50 at 48 h ([3]; Caco-2) [µM]	selectivity ratio at 48 h ([3]; Caco-2)	CC50 at 48 h [4] [µM]	Selectivity index (CC50/IC50) HT-29 (HT-29 cells [5])	Inhibition of the G6PD::6PGL enzyme (in words) [6]	IC50 [7] [µM]	IC50 [1, 9] [µM]	IC50 [1] [µM]	TKT gene expression, decrease vs control [2] [times]	other results
O=C(Nc1ccc([N+](=O)[O-])cc1)Nc1ncc([N+](=O)[O-])s1 [CNZ-7]	more than 98%	11.4	2.6 times	1.7	reduction	15.8	up to 20%	640	121	529	100	inhibitors of the G6PD enzyme	2.5				ACT (actin) gene expression, increase vs control [2]: 2.1 times; PFOR gene expression vs control [2]: 7.4 fold change; TKT gene expression, increase vs control [2]: 1.9 times
CCCCOc1ccc(NC(=O)Nc2ncc([N+](=O)[O-])s2)cc1 [CNZ-8]	more than 98%	19.4	12.5 times	4.2	reduction	8.2	up to 20%		57		56	inhibitors of the G6PD enzyme	13.7	< 15	11.1	1.4	CC50 at 48 h ([3]; Caco-2, CC50 Caco-2, 48 h, XTT): 633 µM; CC50 at 48 h ([4]; HT-29 cells): 622 µM
O=C(Nc1ncc([N+](=O)[O-])s1)c1cccc([N+](=O)[O-])c1 [FLP-8, 3-Nitro-N-(5-nitro-1,3-thiazol-2-yl)benzamide]	more than 98%		did not show changes in expression	1.7	2.7 fold change		≤ 50%	46	460	43.6	436	not inhibitors of the enzyme	1.19			1.7	Decrease of parasite viability ([1]; 25 µM): 100%; Relative potency compared with MTZ [1, 10]: 34 times; Relative potency compared with NTZ [1, 10]: 43 times; VSP gene expression, increase vs control [2]: 2.4 times; CC50 (HT-29 cells [5]; read-out: CC50 HT-29, 48 h, XTT): 43.7 µM
Cc1ncc([N+](=O)[O-])n1CCO [MTZ, metronidazole, reference compound]									160		161			4.3	3.4		CC50 (Caco-2 cells): 545 µM; CC50 (HT-29 cells [8]): 550 µM
